Assay results published in patent US7678884B2, “Biologically active peptide and agent containing the same” (Seikagaku Corporation, priority 2003, dated 2010).
Ends that are not written are not given here.

Assays:
[1] = system: Human-derived Periodontal Ligament Cells (PDL Cells); experiment: Cell growth of PDL cells (cell number by Coulter counter); assay type: cell-based; details: peptide added at various concentrations to DMEM containing 2% FBS; counted on Days 4 and 6; versus control medium (FIG. 1, FIG. 2)
Source text: PDL cells were isolated from a healthy premolar carefully extracted from a patient who visited a hospital to extract teeth for orthodontic treatment so that periodontal ligament should not be damaged as far as possible, and cultured. The extracted tooth was washed with sterilized physiological saline and phosphate-buffered saline (PBS, Nissui), and then periodontal ligament existing in ⅓ of the tooth root at the center was scraped off with a sharp knife. The pieces of periodontal ligament were transferred to a plastic plate and minced into small fragments using a round-blade knife. Tissue fragments were left standing in a plate having a diameter of 35 mm (FALCON) and cultured in Dulbecco's modified Eagle medium (DMEM, Nissui) containing antibiotics (100 U/ml of penicillin G, 100 μg/ml of streptomycin and 250 μg/ml of gentamicin) and 10% fetal bovine serum (FBS, EQUITECH-BIO) at 37° C. under 5% CO2. […]
The PDL cells prepared in (1) were inoculated on a 24-well culture plate (FALCON) at a ratio of 5×10^3 cells/well. […] On Days 4 and 6, the cells were separated and dispersed by using PBS containing 0.08% trypsin and 0.04% ethylenediaminetetraacetic acid (EDTA), and cell number was counted by using a Coulter counter (COULTER Z1, Coulter Electronics). […]

PDL cells [2] = experiment: Cell differentiation of PDL cells (alkaline phosphatase activity, Bessey-Lowry method); assay type: cell-based, human; details: peptide at various concentrations, 2% FBS medium; one week after confluent state; versus control (FIG. 4)
Source text: PDL cells were isolated from a healthy premolar carefully extracted from a patient who visited a hospital to extract teeth for orthodontic treatment so that periodontal ligament should not be damaged as far as possible, and cultured. The extracted tooth was washed with sterilized physiological saline and phosphate-buffered saline (PBS, Nissui), and then periodontal ligament existing in ⅓ of the tooth root at the center was scraped off with a sharp knife. The pieces of periodontal ligament were transferred to a plastic plate and minced into small fragments using a round-blade knife. Tissue fragments were left standing in a plate having a diameter of 35 mm (FALCON) and cultured in Dulbecco's modified Eagle medium (DMEM, Nissui) containing antibiotics (100 U/ml of penicillin G, 100 μg/ml of streptomycin and 250 μg/ml of gentamicin) and 10% fetal bovine serum (FBS, EQUITECH-BIO) at 37° C. under 5% CO2. Then, cells released from the periodontal ligament tissue fragments were subcultured under the same conditions, and the 3rd to 5th generation cells were used for experiments. • (ii) Mouse-derived Osteoblasts
As an index of cell differentiation, alkaline phosphatase (ALP) activity of cells was determined. Cells were inoculated in a 24-well culture plate at a ratio of 5×10^3 cells/well, added with the peptide (a) at various concentrations and cultured in DMEM or αMEM containing 2% FBS. One week after the time point when the cells reached a confluent state, ALP activity was determined by the following enzymochemical method (Bessey-Lowry method, Bessey O A, Lowry O H and Brock M J, A method for the rapid determination of alkaline phosphatase with five cubic millimeter of serum, J. Biol. Chem., 164:321-329, 1946).
The cultured cells were washed with PBS and then disrupted in 10 mM Tris-HCl buffer (pH 7.4, 500 μl) for 40 seconds by using an ultrasonic homogenizer (Handy Sonic model UR-20P, Tomy Seiko) and stirred. Then, 25 μl of this sample liquid was added to 125 μl of ALP buffer (0.1 M carbonate buffer, pH 9.8, 6.7 mM p-nitrophenyl phosphate, 2 mM MgCl2) and incubated at 37° C. for 30 minutes. The reaction was terminated by addition of 125 μl of 0.2 N NaOH, and absorbance was measured at 405 nm by using a microplate reader (Model 550, Bio-Rad Laboratories).
Further, the ALP activity in DMEM containing 2% FBS and DMEM or αMEM containing 2% FBS added with peptide (c) at various concentrations was also similarly examined. The symbol “cont” in FIG. 4 indicates the results for the cells cultured in DMEM containing 2% FBS alone, “PN” indicates the results for the cells cultured in the medium added only with the peptide (a), and “PC” indicates the results for the cells cultured in the medium added only with the peptide (c). In FIG. 4, “pg” and “ng” represent “pg/ml” and “ng/ml,” respectively.
Further, in addition to the peptide (a) (derived from swine), the human-derived peptide (b) and BMP were similarly examined. The results of ALP activity measurement performed when the cells reached a confluent state are shown in FIG. 5, and the results of ALP activity measurement performed one week after the confluent state was attained are shown in FIG. 6. The symbol “cont” in the figures indicates the results for the cells cultured in DMEM containing 2% FBS alone, “B” indicates the results for the cells cultured in the medium added only with BMP2, “PN” indicates the results for the cells cultured in the medium added only with the peptide (a), and “HN” indicates the results for the cells cultured in the medium added only with the peptide (b) In the figures, the unit of numerical values shown after “B,” “PN” and “HN” is “ng/ml.”

PDL cells [3] = experiment: Calcification product forming ability of PDL cells (Dahl's calcium staining, alizarin red S); assay type: cell-based, human; details: peptide at various concentrations, 10 mM sodium β-glycerophosphate, three weeks after confluent state
Method: The following experiment was performed to examine effect of the peptide on calcification product forming ability of cells.
To assess calcification ability of cells, Dahl's calcium staining was performed. The PDL cells were inoculated on a 24-well culture plate at a ratio of 5×10^3 cells/well, and cultured in 2S-containing DMEM added with the peptide (a) or (c) at various concentrations and adjusted by addition of 10 mM sodium β-glycerophosphate. Three weeks after the cells reached a confluent state, the cells were washed with PBS, fixed with neutrally buffered formalin and stained with alizarin red S (Wako Pure Chemical Industries).

NKAQQPQIKRDAWRF [(c)]
significantly increased: PDL cell number (cell growth promoting effect) [1] | ALP activity of the PDL cells (PDL cells [2]) | calcification ability of the PDL cells (PDL cells [3])
